# Marks after values point to notes of the source that are not given here.
# Columns and labels:
# [1] = target: T1, human recombinant MAO-A (Homo sapiens, UniProt P21397); assay: Metabolism by recombinant MAO-A; type: in vitro ADME
# T1 construct: purchased BD Biosciences, Woburn, Mass
# T1 sequence (P21397 1-527): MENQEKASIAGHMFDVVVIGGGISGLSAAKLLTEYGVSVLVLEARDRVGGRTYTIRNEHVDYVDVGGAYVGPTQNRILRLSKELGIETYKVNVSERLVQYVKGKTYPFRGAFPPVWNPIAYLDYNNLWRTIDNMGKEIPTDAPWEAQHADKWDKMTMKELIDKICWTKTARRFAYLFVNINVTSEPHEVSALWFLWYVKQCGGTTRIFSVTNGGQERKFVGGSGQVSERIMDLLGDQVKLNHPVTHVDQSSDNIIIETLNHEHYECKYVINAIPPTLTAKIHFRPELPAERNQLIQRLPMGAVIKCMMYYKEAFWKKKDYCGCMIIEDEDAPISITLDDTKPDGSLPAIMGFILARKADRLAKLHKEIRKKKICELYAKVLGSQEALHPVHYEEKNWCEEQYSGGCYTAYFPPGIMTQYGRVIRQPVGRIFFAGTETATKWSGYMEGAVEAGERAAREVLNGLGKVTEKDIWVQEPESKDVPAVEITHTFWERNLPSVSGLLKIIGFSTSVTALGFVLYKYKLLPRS
# Method: Incubation systems (ca. 0.2 mL) of human recombinant MAO-A (1.0 mg/mL) and MAO-B (1.0 mg/mL) (BD Biosciences, Woburn, Mass.) were prepared in triplicated 0.1 M potassium phosphate buffer (pH 7.4) (BD Biosciences, Woburn, Mass.). […] The negative samples were prepared as described above, with the exception that instead of HLM, HLmito, or recombinant enzymes, water was added to the incubation mixture.
# [2] = Rat developmental toxicity study with toxicokinetics; type: in vivo; settings: for AUC(0-t) / Cmax / Tmax: female, Crl:CD(SD)IGS BR, rat, in vivo, pregnant rats; for AUC(0-t): read-out: AUC0-24
# Text: For the toxicology assessment, there were twenty-five mated females/group.
# Females that delivered early were necropsied on the day of delivery. […] The fetuses were weighed, sexed, and examined for external, visceral, and skeletal malformations and developmental variations.
# [3] = Rat pulmonary function study; type: in vivo; settings: for animals with test article-related clinical observations: 6 hours post-dosing
# Method: There were eight male rats per group. Clinical examinations were performed daily, and detailed physical examinations were performed prior to dosing and again following pulmonary functional assessments. Four replicates of 2 animals from each treatment group were evaluated over a 2-week period. Following dose administration, the rats were placed in a head-out neck-sealed plethysmograph for measurement of pulmonary function parameters (respiratory rate, tidal volume, and calculated minute volume). Pulmonary function data were collected for at least 60 minutes prior to dosing (Day −1) and for at least 6 hours post-dosing on Day 0.
# [4] = Multiple-dose safety and PK study 25 mg BID and 50 mg BID for 10 days; type: in vivo, human; settings: for drug accumulation: 10 days; for Cmax / Tmax / half-life / AUC(0-t): male, human, in vivo, healthy male subjects, mean (SD); for AUC(0-t): read-out: AUC0-12
# Text: Twenty-two male subjects were randomized for the study and received study medication.
# [5] = po, 3 mg/kg/day, 3 mg/kg/day, GD 6
# [6] = po, 3 mg/kg/day, 3 mg/kg/day, GD 17
# [7] = po, 20 mg/kg/day, 20 mg/kg/day, GD 6
# [8] = po, 20 mg/kg/day, 20 mg/kg/day, GD 17
compound,measurement,setting,value
"O=C1NCC2(c3ccc(Cl)c(Cl)c3)CC12 (stereo not drawn) [EB-10101, 5-(3,4-dichloro-phenyl)-3-aza-bicyclo[3.1.0]hexan-2-one]",MAO-A mediation of formation,[1]; human recombinant MAO-A,MAO-A mediated
same,EB-10101 formation rate (mean ± SD),"[1]; recombinant MAO-A 1 mg/mL, EB-1010 1 μM, 30 min, underestimated (substrate limited)",7.0 ± 2.7^b pmol/min/mg protein
"Clc1ccc([C@]23CNC[C@H]2C3)cc1Cl [amitifadine, (+)-1-(3,4-dichlorophenyl)-3-azabicyclo[3.1.0]hexane]",AUC(0-t),"[2]; oral, 10 mg/kg/day, 10 mg/kg/day, GD 17",11.2 µg·h/mL
same,Cmax,[2]; [5],0.387 µg/mL
same,AUC(0-t),[2]; [5],2.57 µg·h/mL
same,Cmax,[2]; [6],0.397 µg/mL
same,AUC(0-t),[2]; [6],2.62 µg·h/mL
same,AUC(0-t),"[2]; po, 10 mg/kg/day, 10 mg/kg/day, GD 6",10.9 µg·h/mL
same,Cmax,"[2]; po, 10 mg/kg/day, 10 mg/kg/day, GD 17",1.3 µg/mL
same,Cmax,[2]; [7],1.97 µg/mL
same,AUC(0-t),[2]; [7],19.5 µg·h/mL
same,Cmax,[2]; [8],1.89 µg/mL
same,AUC(0-t),[2]; [8],19.7 µg·h/mL
same,Tmax,"[2]; po, 3 mg/kg/day, GD 6",2 h
same,Tmax,"[2]; po, 10 mg/kg/day, GD 6",2 h
same,Tmax,"[2]; po, 20 mg/kg/day, GD 6",2 h
same,NOEL for developmental toxicity,[2]; oral gavage GD 6-17,10 mg/kg/day
same,animals with test article-related clinical observations,[3]; 30 mg/kg,⅜
same,increased respiratory frequency,"[3]; 100 mg/kg, 16 to 30 minutes post-dosing",23%
same,animals with test article-related clinical observations,[3]; 100 mg/kg,6/8
same,elevated respiratory frequency,"[3]; 100 mg/kg, later post-treatment intervals",≥ 33%
same,NOAEL,"[3]; male, Crl:CD(SD)IGS BR, rat, in vivo, single oral gavage",30 mg/kg
same,drug accumulation,[4]; 25 mg BID,1.27
same,drug accumulation,[4]; 50 mg BID,1.44
same,Cmax,"[4]; 25 mg, 25 mg BID, Day 1",0.327 µg/mL
same,Tmax,"[4]; 25 mg, 25 mg BID, Day 1",0.9 h
same,half-life,"[4]; 25 mg, 25 mg BID, Day 1",3.27 h
same,AUC(0-t),"[4]; 25 mg, 25 mg BID, Day 1",1.36 µg·h/mL
same,Cmax,"[4]; 25 mg, 25 mg BID, Day 10",0.388 µg/mL
same,Tmax,"[4]; 25 mg, 25 mg BID, Day 10",1.07 h
same,half-life,"[4]; 25 mg, 25 mg BID, Day 10",3.34 h
same,AUC(0-t),"[4]; 25 mg, 25 mg BID, Day 10",1.7 µg·h/mL
same,Cmax,"[4]; 50 mg, 50 mg BID, Day 1",0.496 µg/mL
same,half-life,"[4]; 50 mg, 50 mg BID, Day 1",3.19 h
same,AUC(0-t),"[4]; 50 mg, 50 mg BID, Day 1",2.23 µg·h/mL
same,Cmax,"[4]; 50 mg, 50 mg BID, Day 10",0.744 µg/mL
same,Tmax,"[4]; 50 mg, 50 mg BID, Day 10",1.18 h
same,half-life,"[4]; 50 mg, 50 mg BID, Day 10",2.97 h
same,AUC(0-t),"[4]; 50 mg, 50 mg BID, Day 10",3.2 µg·h/mL
